According to US20050123479A1, “Therapeutic properties of oils” (priority 2002, published 2005):

Tested on: human T lymphocytes
Assay: PHA-induced lymphocyte proliferation (3H-TdR incorporation)
Assay type: cell-based
Settings: compared with 18:1ω9, 18:0 and 18:2; preliminary studies (FIG. 24)
Protocol: Lymphocyte proliferation was measured by a semi-automated microtechnique (12). Human mononuclear cells (2×10^5) were seeded into u-bottomed wells of a micro-titre plate (50 μl) and treated with 500 of the ethanol emu oil fraction. After 30 min incubation, […] PHA was added to stimulate the T lymphocytes. The cells were incubated for 72 h at 37° C. in an atmosphere of 5% CO2-air and high humidity. At 6 h prior to harvest, the cultures were pulsed with 1 μCi of ^3H-TdR. The cells were harvested and the amount of radioactivity incorporated measured in a liquid scintillation counter.
Makin emu oil was subjected to solubility in ethanol. This ethanol soluble oil fraction was then tested for ability to depress proliferation of mitogen stimulated human lymphocytes. The mononuclear cells were isolated from peripheral blood and pretreated for 30 min with dilutions of the fraction and then challenged with phytohaemagglutinin (PHA). Proliferation of lymphocytes was measured after 48 hours using ^3H-TdR incorporation as a marker for DNA synthesis.

SMILES: CCCCC/C=C\C/C=C\CCCCCCCC(=O)O [18:2ω6, Linoleic acid (18:2ω6)]
- inhibition of T lymphocyte and mononuclear cell responses by fatty acids: strongly inhibitory
